Consider one compound from patent publication US20230375530A1, “HUMAN BLOOD-BRAIN BARRIER MODEL FOR IMMUNOLOGICAL STUDIES” (WISCONSIN ALUMNI RESEARCH FOUNDATION, priority 2020, published 2023).

What all share (type): cell-based, human
Assay [1] relates to hPSC-derived Passage 1 and Passage 3 ECs. Nature of the assay: Western blotting of DMSO- or CHIR-treated ECs. Here is the method: (§1) For extended culture, ECs were selectively dissociated and replated as previously described (Nishihara et al., 2020). Cells were incubated with Accutase until endothelial cells appeared round, typically 2-3 min at 37° C. The plate was tapped to release the ECs while SMLCs remained attached, and the EC-enriched cell suspension transferred to 4× volume of DMEM/F-12 and centrifuged for 5 min, 200×g. Cells were resuspended in hECSR medium and seeded on a new collagen IV-coated plate at approximately 3×10^4 cells/cm^2. hECSR medium was replaced every other day until confluent (typically 6 days). The selective dissociation and seeding described above was repeated, and hECSR medium was again replaced every other day until confluent (typically 6 days). We denote this time point “Passage 3.” In one experiment, these steps were repeated for another two passages. Except where indicated, CHIR 99021 or vehicle (DMSO) was included in the hECSR medium for the entire duration of culture.
To enrich samples from Passage 1 cultures for ECs, the Accutase-based selective dissociation method described above was employed. Dissociated cells were centrifuged for 5 min, 200×g, and resulting cell pellets were lysed in RIPA buffer (Rockland Immunochemicals, Pottstown, PA) supplemented with 1× Halt Protease Inhibitor Cocktail (Thermo Scientific). Passage 3 cells were lysed with the above buffer directly on plates. Lysates were centrifuged at 4° C. for 5 min, 14,000×g, and protein concentration in supernatants quantified using the Pierce BCA Protein Assay Kit (Thermo Scientific). Equal amounts of protein were diluted to equal volume with water, mixed with sample buffer, and heated at 95° C. for 5 min, except lysates intended for GLUT-1 Western blotting, which were not heated. Samples were resolved on 4-12% Tris-Glycine gels and transferred to nitrocellulose membranes. Membranes were blocked for 1 h in tris-buffered saline plus 0.1% Tween-20 (TBST) supplemented with 5% non-fat dry milk. Primary antibodies (see Table 6 for antibody information) diluted in TBST plus 5% non-fat dry milk were added to membranes and incubated overnight at 4° C. on a rocking platform. Membranes were washed five times with TBST. Secondary antibodies (see Table 6 for antibody information) diluted in TBST were added to membranes and incubated for 1 h at room temperature on a rocking platform, protected from light. Membranes were washed five times with TBST and imaged using an Odyssey 9120 (LI-COR, Lincoln, NE). Band intensities were quantified using Image Studio software (LI-COR).
(A western blot detects proteins with antibodies after separation by electrophoresis.)

Another assay has as its system CD31+ Passage 1 ECs. Nature of the assay: Dextran accumulation assay (fluid-phase endocytosis). Particulars: 10 kDa dextran, 2 h, 37° C., CHIR vs DMSO. The protocol: A fixable, Alexa Fluor 488-conjugated dextran with an average molecular weight of […] (Invitrogen) was used as a tracer to estimate total fluid-phase endocytosis. Dextran was added at 10 μM to the medium of Passage 1 cultures. Plates were incubated on rotating platforms at 37° C. or 4° C. for 2 h. Medium was removed and cells were washed once with DPBS, and then incubated with Accutase for 10 min at 37° C. Cell suspensions were passed through 40 μm cell strainers into 4× volume of DMEM/F-12 and centrifuged for 5 min, 200×g. Cells were resuspended in MACS buffer and incubated with the CD31-APC antibody (Miltenyi Biotec) for 30 min at 4° C., protected from light. Cell suspensions were brought to a volume of 5 mL with MACS buffer and centrifuged at 4° C. for 5 min, 200×g. Pellets were resuspended in DPBS supplemented with 4% paraformaldehyde and incubated for 15 min at room temperature, protected from light. Cells were centrifuged for 5 min, 200×g. Pellets were resuspended in MACS buffer and analyzed on a BD FACSCalibur flow cytometer (BD Biosciences). FlowJo software was used to gate CD31^+ cells and quantify geometric mean fluorescence intensity and coefficient of variation (CV) of dextran.

The next assay relates to Passage 3 ECs. The experiment in a line: Transendothelial electrical resistance and sodium fluorescein permeability. The settings on record: CHIR-treated vs DMSO-treated.
For assay [2], the system named is matured hPSC-derived ECs (Passage 5). The experiment in a line: CHIR treatment in matured endothelium, immunocytochemistry. The protocol:
as §1
Immunocytochemistry was performed in 24-well plates. […]
Images were analyzed using FIJI (ImageJ) software. For epifluorescence images, 5 fields (20×) were analyzed per well, with 3-4 wells per treatment condition. For quantification of cell number, EC colonies were manually outlined, and the Analyze Particles function was used to estimate the number of nuclei within the EC colonies. Nuclei outside the EC colonies were manually counted. EC purity (% EC) was calculated as the number of nuclei within EC colonies relative to total nuclei. To estimate % GLUT-1^+ ECs, cells within the EC colonies with membrane-localized GLUT-1 immunoreactivity (e.g., arrowheads in FIG. 24B) were manually counted. To estimate % Ki67^+ ECs, cells within the EC colonies with at least one nuclear-localized Ki67 punctum were manually counted. For quantification of fluorescence intensity in epifluorescence images, EC colonies were manually outlined, and the Measure function was used to obtain the mean fluorescence intensity for each image channel (fluorophore). A cell-free area of the plate was similarly quantified for background subtraction. […]

Take `Cc1c[nH]c(-c2cnc(NCCNc3ccc(C#N)cn3)nc2-c2ccc(Cl)cc2Cl)n1` [CHIR, CHIR 99021]: in assay [1] (Passage 1 ECs), the “PLVAP reduction in Western blots” value is reported as “not apparent”. Moreover, in assay [1] (Passage 1 and Passage 3), the “GLUT-1 and claudin-5 in Western blots” value is “upregulation of GLUT-1 and claudin-5”. The LSR expression entry in assay [1] (Passage 1 and Passage 3 ECs) was “strong increase in LSR expression”. In assay [1] (Passage 3 ECs, CHIR vs controls), the “PLVAP in Western blots” value was “robust downregulation of PLVAP”. Further, in the assay on CD31+ Passage 1 ECs, the “distribution of dextran intensities” value is recorded as “broadening of the distribution of dextran intensities” and the “geometric mean dextran signal” value is recorded as “did not change the geometric mean dextran signal”. The “transendothelial electrical resistance (TEER)” value in the assay on Passage 3 ECs is given as “elevated transendothelial electrical resistance”. In addition, the “increase in GLUT-1 abundance” value in assay [2] (CHIR for 6 days after 4 passages, vs DMSO) is recorded as “approximately 1.5 fold”. Besides, in assay [2] (CHIR in matured ECs), the EC number result is given as “slight decrease in EC number” and the claudin-5 expression entry was “variable effects”.
